Data published in PMC11170107, “Development of a new hazard scoring system in primary neuronal cell cultures for drug-induced acute neuronal toxicity identification in early drug discovery” (Frontiers in Pharmacology, 2024).

Legend:
[1] = WHO adverse drug reactions VigiBase; ref Kumlien and Lundberg, 2010; cited from earlier work
[2] = tested on: rat primary cortical neurons
Description: (§1) At DIV28, spontaneous neuronal activity obtained for 30 min in culture solution was defined as the baseline.
(§2) Data analysis was captured using AxIs suite software (Axion Biosystems Inc., version 3.6.2) and further analyzed using GraphPad Prism (version 9.00; GraphPad Software Inc., San Diego, CA). […] An active well should have more than 40% active electrodes. All wells below this threshold were discarded upon these quality criteria. For the downstream statistical analysis, the data on each MEA parameter was first expressed as the ratio of exposed wells (percentage change between baseline and the treatment) and then normalized to the average of the control within the same plate. i.e., Baseline corrected ratios of n= 7 or eight wells were averaged per condition. Each well of the MEA served as its own control, and the changes in the electrical activity elicited by the treatments were expressed as a percentage of that control activity and normalized to the wells treated with the vehicle control dimethyl sulfoxide (DMSO). […] Differences were determined using the non-parametric Wilcoxon Mann Whitney test; p-values below 0.05 were considered significant. Data are expressed as means ± S.E.M.
(§3) Thereafter, based on the effects of vehicles and positive controls, we determined the cut-off points between the different effect zones according to the key parameters selected as described in the previous subsection. The zones were defined as follows. The “no effect” zone reflects parameter changes that are most likely within vehicle variability. The “mild” and “strong” zones are differentiated bidirectionally showing mild and strong effects.
(§4) The respective hazard class was determined by a cumulative scoring of individual parameters using a scoring matrix, which was based on the following three fundamental components: (1) selection of the six key relevant parameters, (2) defining the cutoffs for the level of effect, and (3) defining weighted points per parameter for the level of hazard potential. The scoring matrix concluded with the addition of a weighted point algorithm to discriminate distinct degrees of neuronal hazard. […] The weighted points were defined on the importance of a parameter (and the direction of effect), as well as the identification of an expected hazard for different pharmacological modes of action. The overall hazard score is derived from the sum of all weighted parameters, which could be converted into a specific hazard label. The weighted points and total score range associated with the various hazard labels were optimized using an iterative process.

[3] = seizure ADR frequency in SIDER; ref Campillos et al., 2008; Kuhn et al., 2010; cited from earlier work
[4] = tested on: Male rats (Sprague-Dawley); experiment: EEG recordings and behavioral seizures in freely moving rats; assay type: in vivo; details: freely moving rat, iv
Description: Electroencephalogram (EEG) rodent studies and assessment of seizures: Male rats (n = 8) (Sprague-Dawley), 400-800 g, were surgically implanted with Stellar Implantable Transmitter (E−430001-IMP-77, Type PBT-M-C Pressure, Biopotential, Temp; TSE systems USA) and microchipped with RFID (Bio13. Therm.03V1 PLS, Biomark Inc, USA) transponder for measurements of activity and body temperature. EEG was used to confirm that convulsive activity is linked to seizurogenic activity measured on the EEG.

[5] = tested on: rat primary cortical neurons; experiment: MEA hazard scoring in rat primary cortical neuronal cultures; details: rodent cortical neurons in vitro
Description: as §1, §2, §3, §4

[6] = established from VigiBase, SIDER, Elsevier drug information and FDA prescribing information
[7] = Supplementary Table S1; cited from earlier work

Nc1ccncc1 [4-Aminopyridine]
Percentage seizures of total number of ADRs [1]: 2.353%
hazard score group in Figure 3 [2]: Neuro Active to high hazard
SIDER ADR on-/off-label [3]: no frequency information
EEG spikes ([4]; 1 mg/kg): significantly increased
convulsions and seizures ([4]; 3 mg/kg): induced convulsions and seizures
firing rate (weighted mean firing rate) in MEA recordings [5]: largely increased
Classification* (degree of seizure risk) [6]: Risk
Free Cmax highest [7]: 240 nM
